The values that follow come from paper PMC7072329, “Discovery of Kynurenines Containing Oligopeptides as Potent Opioid Receptor Agonists” (Biomolecules, 2020).

Where “and” joins values, the source holds several entries; their conditions need not be identical. Equal entries are not always repeated. Where a SMILES comes first, the peptide text is derived from it. [ ]: non-standard residue; d: D form. Kyn = Nc1ccccc1C(=O)C[C@H](N)C(=O)O

Assay [1] has as its target G-protein. The assay can be described thus: functional [35S]GTPγS binding, rat brain membrane homogenates. Format: biochemical. The method, then:
(§1) Rats and guinea pigs were decapitated, and their brains were quickly removed. The brains were used for membrane preparation following the procedure reported by Benyhe for binding and [^35S]GTPγS binding experiments, in agreement with the protocol of Zádor et al..
(§2) Homogenization of brains was performed in 30 volumes (v/w) of ice-cold 50 mM Tris-HCl pH 7.4 buffer with a Teflon-glass Braun homogenizer at 1500 rpm. The centrifuge was settled at 18,000 rpm for 20 min at 4 °C, the resulting supernatant discarded, and the pellet taken up in the original volume of Tris-HCl buffer. Incubation of homogenate at 37 °C for 30 min was performed in a shaking water-bath. Five volumes of 50 mM Tris-HCl pH 7.4 buffer were used to suspend the final pellet at −80 °C. For the [^35S]GTPγS binding experiments, the brains were homogenized with a Dounce in 5 volumes (v/w) of ice-cold TEM (Tris-HCl, EGTA, MgCl2) at −80 °C. The protein content of the membrane preparation was determined by the method of Bradford, BSA being used as a standard.
(§3) The functional [^35S]GTPγS binding experiments were performed as previously described. Briefly the membrane homogenates were incubated at 30 °C for 60 min in Tris-EGTA buffer (pH 7.4) composed of 50 mM Tris-HCl, 1 mM EGTA, 3 mM MgCl2, 100 mM NaCl, containing 20 MBq/0.05 cm^3 [^35S]GTPγS (0.05 nM) and increasing concentrations (10^−10 to 10^−5 M) of ligands. The experiments were performed in the presence of excess GDP (30 μM) in a final volume of 1 mL. Total binding was measured in the absence of test compounds, non-specific binding was determined in the presence of 10 μM unlabeled GTPγS. The reaction was terminated by rapid filtration under vacuum and washed three times with 5 mL ice-cold 50 mM Tris-HCl (pH 7.4) buffer through Whatman GF/B glass fibers. The radioactivity of the filters was detected in an UltimaGold^TM MV aqueous scintillation cocktail with a Packard Tricarb 2300TR liquid scintillation counter.
(§4) Experimental data are presented as means ± S.E.M. Sigmoid dose-response curves were fitted with GraphPad Prism 5.0 (GraphPad Prism Software Inc., San Diego, CA, USA). An unpaired t-test with two-tailed p value was performed to determine the significance level. In the competition binding assays, the ‘One site competition’ fitting was used to establish the equilibrium binding affinity (Ki value).
[35S]GTPγS binding assay in rat brain membrane homogenates. Figure S2 represents the specific binding of [35S]GTPγS in percentage in presence of increasing concentrations (10-10 - 10^-5 M) of the indicated ligands. “Total” on the x-axis indicates the basal activity of the monitored G-protein, which is measured in the absence of the ligands and represents the total specific binding of [35S]GTPγS. The level of basal activity was defined as 100% and it is presented with a dotted line. Points represent means ± S.E.M. for at least three experiments […]
Figure S3. The effect of novel oligopeptides on G-protein activity in [35S]GTPγS binding assays in the absence or presence of the selective MOR antagonist cyprodime (Cyp) and the selective DOR antagonist naltrindole (NTI) in rat brain membrane homogenates (Figure A) and the selective KOR antagonist norbinaltorphine (nor-BNI) in guinea pig brain membrane homogenates (Figure B). The level of basal activity was defined as 100% and it is presented with a dotted line. Points represent means ± S.E.M. for at least three experiments performed
A general note: GTPγS resists hydrolysis and so accumulates on activated G proteins.

Assay [2] has as its system G-protein. The assay can be described thus: functional [35S]GTPγS binding, guinea pig brain membrane homogenates. Format: biochemical. To be noted: ligand alone. The method, then:
as §1, §2, §3, §4
Figure S3. The effect of novel oligopeptides on G-protein activity in [35S]GTPγS binding assays in the absence or presence of the selective MOR antagonist cyprodime (Cyp) and the selective DOR antagonist naltrindole (NTI) in rat brain membrane homogenates (Figure A) and the selective KOR antagonist norbinaltorphine (nor-BNI) in guinea pig brain membrane homogenates (Figure B). […]

In another assay the test system is CD-1 male mice. The assay can be described thus: formalin test. It counts as in vivo. To be noted: s.c. in hind paw, 100 μg/20 μL, 15 min before formalin. As for the experimental part: In our experiments, we used CD-1 male mice (Harlan, Italy, 25–30 g) maintained in colony, housed in cages (7 mice per cage) under standard light/dark cycle (from 7:00 a.m. to 7:00 p.m.), temperature (21 ± 1 °C) and relative humidity (60% ± 10%) for at least 1 week. Food and water were available ad libitum. The Service for Biotechnology and Animal Welfare of the Istituto Superiore di Sanità and the Italian Ministry of Health authorized the experimental protocol according to Legislative Decree 26/14.
DMSO was purchased from Merck (Rome, Italy). Peptides solutions were freshly prepared using saline containing 0.9% NaCl and DMSO in the ratio DMSO/saline 1:5 v/v every experimental day. These solutions were injected at a volume of 10 μL/mouse for intracerebroventricular (i.c.v.) administrations or at a volume of 20 μL/mouse for subcutaneous administrations.
In the formalin test, the injection of a dilute solution of formalin (1%, 20 μL/paw) into the dorsal surface of the mouse hind paw evoked biphasic nociceptive behavioral responses, such as licking, biting the injected paw, or both, occurring from 0 to 10 min after formalin injection (the early phase) and a prolonged phase, occurring from 15 to 40 min (the late phase). Before the test, mice were individually placed in a Plexiglas observation cage (30 × 14 × 12 cm) for one hour, to acclimatize to the testing environment. The total time the animal spent licking or biting its paw during the early and late phase of formalin-induced nociception was recorded.
Experimental data were expressed as mean ± s.e.m. In the tail flick test, significant differences among the groups were evaluated with two-way ANOVA followed by Sidak’s multiple comparisons test. Formalin test data were analyzed by using one-way ANOVA, followed by Holm–Sidak’s multiple comparisons test. […] Statistical significance was set at p < 0.05. The data and statistical analysis comply with the recommendations on experimental design and analysis in pharmacology.
Early phase represents the formalin-induced nociceptive behavior recorded from 0 to 10 min after formalin injection; late phase is for the formalin-induced nociceptive behavior recorded from 15 to 40 min after formalin injection. V is for vehicle-treated animals. Statistical analysis: one-way ANOVA followed by Holm–Sidak’s multiple comparisons test. ** is for p < 0.01 and *** is for p < 0.001 vs. V. n = 7.

On to `C[C@@H](NC(=O)[C@@H](N)Cc1ccc(O)cc1)C(=O)NCC(=O)N[C@@H](Cc1ccccc1)C(=O)N[C@@H](CC(=O)c1ccccc1N)C(N)=O` [Peptide K6] (H-Y[dA]GF[Kyn]-NH2), for which the “Potency Log EC50 ± S.E.M.” value on G-protein [1] (dose-response curves) is −5.984 ± 0.054. Moreover, the “Maximal Stimulation (Efficacy) Emax ± S.E.M.” value with G-protein [1] (dose-response curves, basal = 100%) is reported as 209.7 ± 3.4%. Further, the “Emax + S.E.M., Ligand” value with G-protein [1] (ligand alone, bar graphs Figure S3) is 211% and 211.7 ± 3.1%; in the assay on G-protein [2] it was 139.8 ± 2.3%. The “formalin-induced nociceptive behavior, early phase” value with CD-1 male mice (0 to 10 min) is reported as “able to reduce the nociceptive response to formalin in the early phase”. For the same molecule, in the assay on CD-1 male mice (15 to 40 min), the “formalin-induced nociceptive behavior, late phase” value is recorded as “light but not significant reduction”.
